Experimental data from patent US20240174672A1, “Spirocycle Containing Pyridone Compounds” (Protego Biopharma, Inc., priority 2022, published 2024).

test system: immunoglobulin light chain protein WIL-FL T46L; assay: Differential Scanning Fluorimetry (thermal shift) assay; type: binding; conditions: recombinant amyloidogenic full length light chain WIL-FL T46L; protein and compound incubated at RT for 30 min before dye
Protocol: Differential Scanning Fluorimetry Assay
The stabilization effects the compounds have on the immunoglobulin light chain protein was quantitively measured using a thermal shift assay. Recombinant amyloidogenic full length light chain protein WIL-FL T46L was produced in E. coli, purified, and used in the assay. The Thermal Shift Protein Stability Kit from Biotium was used and the assay was done in 96-well Plates following the manufacturer's instructions. The protein and compounds were incubated at RT for 30 min before adding the dye and subjected to the thermal shift assay. The thermal stability (Tm) of each sample was then determined using standard curve fitting methods and compared to vehicle. Data are expressed as temperature shift: [Tm]compound−[Tm]vehicle.
The compounds provided herein induce shifts in the ranges below: • 0-0.5° C.═* • >0.5-1° C.═** • >1-1.5° C.═*** • >1.5-2.5° C.═**** • >2.5° C.═*****

Compound | DSF temperature shift: [Tm]compound−[Tm]vehicle
CC[C@@]1(c2ccccc2)CCN(c2cc(C)n(CCN3CC4(CCN(c5nccn6cnnc56)CC4)NC3=O)c(=O)c2)C1 [Compound 1, (S)-8-([1,2,4]triazolo[4,3-a]pyrazin-8-yl)-3-(2-(4-(3-ethyl-3-phenylpyrrolidin-1-yl)-6-methyl-2-oxopyridin-1(2H)-yl)ethyl)-1,3,8-triazaspiro[4.5]decan-2-one] | ***** (>2.5° C.═*****)
Cc1cc(N2CC[C@@](C)(c3ccccc3)C2)cc(=O)n1CCN1CC2(CCN(c3ncnc4[nH]ncc34)CC2)NC1=O [Compound 9] | **** (>1.5-2.5° C.═****)
Cc1cc(N2CC[C@@](C)(c3ccccc3)C2)cc(=O)n1CCCN1CC2(CCN(c3nccn4ccnc34)CC2)NC1=O [Compound 10] | **** (>1.5-2.5° C.═****)
Cc1cc(N2CCC(C)(c3ccccc3)C2)cc(=O)n1CCN1CC2(CCN(c3ncccn3)C2)NC1=O (stereo not shown) [Compound 11, 3-(2-(6-methyl-4-(3-methyl-3-phenylpyrrolidin-1-yl)-2-oxopyridin-1(2H)-yl)ethyl)-7-(pyrimidin-2-yl)-1,3,7-triazaspiro[4.4]nonan-2-one] | *** (>1-1.5° C.═***)
Cc1cc(N2CC[C@](C)(c3ccccc3)C2)cc(=O)n1CCN1CC2(CCN(c3nccn4ccnc34)CC2)NC1=O [Compound 12] | *** (>1-1.5° C.═***)
Cc1cc(N2CC[C@@](C)(c3ccccc3)C2)cc(=O)n1CCCN1CC2(CCN(c3nccn4ccnc34)CC2)NC1=O [Compound 13] | ** (>0.5-1° C.═**)
CCOC(=O)c1ccc(N2CCC3(CC2)CN(CCn2c(C)cc(N4CC[C@](CC)(c5ccccc5)C4)cc2=O)C(=O)N3)cn1 [Compound 14] | ***** (>2.5° C.═*****)
CC[C@@]1(c2ccccc2)CCN(c2cc(C)n(CCN3CC4(CCN(c5cn6ccnc6cn5)CC4)NC3=O)c(=O)c2)C1 [Compound 15] | **** (>1.5-2.5° C.═****)
CC[C@@]1(c2ccccc2)CCN(c2cc(C)n(CCN3CC4(CCN(c5ccc6nncn6c5)CC4)NC3=O)c(=O)c2)C1 [Compound 16] | **** (>1.5-2.5° C.═****)
CC[C@]1(c2ccccc2)CCN(c2cc(C)n(CCN3CC4(CCN(c5ccc(C(=O)O)nn5)CC4)NC3=O)c(=O)c2)C1 [Compound 17] | ***** (>2.5° C.═*****)
CC[C@]1(c2ccccc2)CCN(c2cc(C)n(CCN3CC4(CCN(c5ccc(C(=O)OC)nn5)CC4)NC3=O)c(=O)c2)C1 [Compound 18] | ***** (>2.5° C.═*****)
CC[C@]1(c2ccccc2)CCN(c2cc(C)n(CCN3CC4(CCN(c5ccc(C(=O)O)nc5)CC4)NC3=O)c(=O)c2)C1 [Compound 19] | ** (>0.5-1° C.═**)
CC[C@]1(c2ccccc2)CCN(c2cc(C)n(CCN3CC4(CCN(c5cccc(C(=O)O)n5)CC4)NC3=O)c(=O)c2)C1 [Compound 20] | **** (>1.5-2.5° C.═****)
CC[C@]1(c2ccccc2)CCN(c2cc(C)n(CCN3CC4(CCN(c5cccc(C(=O)OC)n5)CC4)NC3=O)c(=O)c2)C1 [Compound 21] | **** (>1.5-2.5° C.═****)
CC[C@]1(c2ccccc2)CCN(c2cc(C)n(CCN3CC4(CCN(c5nccn6cnnc56)CC4)NC3=O)c(=O)c2)C1 [Compound 22] | *** (>1-1.5° C.═***)
Cc1nc(N2CC[C@](C)(c3ccccc3)C2)cc(=O)n1CCN1CC2(CCN(c3nccn4ccnc34)CC2)NC1=O [Compound 24] | *** (>1-1.5° C.═***)
Cc1cc(N2CC[C@@](C)(c3ccccc3)C2)cc(=O)n1CCCN1C(=O)NC2(CCN(c3nccn4ccnc34)CC2)C1=O [Compound 27] | **** (>1.5-2.5° C.═****)
Cc1cc(N2CCC(C)(c3ccccc3)C2)cc(=O)n1CCCN1C(=O)NC2(CCN(c3ncccn3)CC2)C1=O (stereo not shown) [Compound 28, 3-(3-(6-methyl-4-(3-methyl-3-phenylpyrrolidin-1-yl)-2-oxopyridin-1(2H)-yl)propyl)-8-(pyrimidin-2-yl)-1,3,8-triazaspiro[4.5]decane-2,4-dione] | **** (>1.5-2.5° C.═****)
Cc1cc(N2CCC(C)(c3ccccc3)C2)cc(=O)n1CCCN1C(=O)NC2(CCN(c3nccn4ccnc34)CC2)C1=O (stereo not shown) [Compound 29] | **** (>1.5-2.5° C.═****)
Cc1cc(N2CCC(C)(c3ccccc3)C2)cc(=O)n1CCN1C(=O)NC2(CCN(c3ncccn3)CC2)C1=O (stereo not shown) [Compound 30] | **** (>1.5-2.5° C.═****)
Cc1cc(N2CC[C@@](C)(c3ccccc3)C2)cc(=O)n1CCN1C(=O)NC2(CCN(c3nccn4cncc34)CC2)C1=O [Compound 31] | *** (>1-1.5° C.═***)
Cc1cc(O[C@H](C)c2ccccc2)cc(=O)n1CCN1C(=O)NC2(CCN(c3nccn4ccnc34)CC2)C1=O [Compound 32, (R)-8-(imidazo[1,2-a]pyrazin-8-yl)-3-(2-(6-methyl-2-oxo-4-(1-phenylethoxy)pyridin-1(2H)-yl)ethyl)-1,3,8-triazaspiro[4.5]decane-2,4-dione] | ** (>0.5-1° C.═**)
Cc1cc(N2CCC(C)(c3ccccc3)C2)cc(=O)n1CCN1C(=O)NC2(CCN(c3ncccn3)C2)C1=O (stereo not shown) [Compound 33] | *** (>1-1.5° C.═***)
Cc1cc(N2CCC(C)(c3ccccc3)C2=O)cc(=O)n1CCN1C(=O)NC2(CCN(c3ncccn3)C2)C1=O (stereo not shown) [Compound 34, 3-(2-(6-methyl-4-(3-methyl-2-oxo-3-phenylpyrrolidin-1-yl)-2-oxopyridin-1(2H)-yl)ethyl)-7-(pyrimidin-2-yl)-1,3,7-triazaspiro[4.4]nonane-2,4-dione] | * (0-0.5° C.═*)
Cc1cc(N2CC[C@](C)(c3ccccc3)C2)cc(=O)n1CCCN1C(=O)NC2(CCN(c3nccn4ccnc34)CC2)C1=O [Compound 35] | *** (>1-1.5° C.═***)
